Entries after “also recorded” stand apart in the source; their conditions may differ.
How the values were obtained:
Nod2 = target: T1, Nod2 (Homo sapiens, UniProt Q9HC29, R703H); test: NF-κB reporter assay in HEK293T/HEK293 cells expressing Nod2; type: cell-based
T1 construct: ligated to generate an unique cDNA containing the entire open reading frame of Nod2; expressed in transfected cells; host or cells: HEK293T

P268S NOD2 = target: T2, P268S NOD2 (Homo sapiens, UniProt Q9HC29, P268S); test: NF-κB reporter assay in HEK293T cells expressing P268S NOD2; type: cell-based; details: 100 ng/ml MDP
T2 construct: expressed in transfected cells; host or cells: HEK293T
T2 sequence (Q9HC29 whole entry P268S): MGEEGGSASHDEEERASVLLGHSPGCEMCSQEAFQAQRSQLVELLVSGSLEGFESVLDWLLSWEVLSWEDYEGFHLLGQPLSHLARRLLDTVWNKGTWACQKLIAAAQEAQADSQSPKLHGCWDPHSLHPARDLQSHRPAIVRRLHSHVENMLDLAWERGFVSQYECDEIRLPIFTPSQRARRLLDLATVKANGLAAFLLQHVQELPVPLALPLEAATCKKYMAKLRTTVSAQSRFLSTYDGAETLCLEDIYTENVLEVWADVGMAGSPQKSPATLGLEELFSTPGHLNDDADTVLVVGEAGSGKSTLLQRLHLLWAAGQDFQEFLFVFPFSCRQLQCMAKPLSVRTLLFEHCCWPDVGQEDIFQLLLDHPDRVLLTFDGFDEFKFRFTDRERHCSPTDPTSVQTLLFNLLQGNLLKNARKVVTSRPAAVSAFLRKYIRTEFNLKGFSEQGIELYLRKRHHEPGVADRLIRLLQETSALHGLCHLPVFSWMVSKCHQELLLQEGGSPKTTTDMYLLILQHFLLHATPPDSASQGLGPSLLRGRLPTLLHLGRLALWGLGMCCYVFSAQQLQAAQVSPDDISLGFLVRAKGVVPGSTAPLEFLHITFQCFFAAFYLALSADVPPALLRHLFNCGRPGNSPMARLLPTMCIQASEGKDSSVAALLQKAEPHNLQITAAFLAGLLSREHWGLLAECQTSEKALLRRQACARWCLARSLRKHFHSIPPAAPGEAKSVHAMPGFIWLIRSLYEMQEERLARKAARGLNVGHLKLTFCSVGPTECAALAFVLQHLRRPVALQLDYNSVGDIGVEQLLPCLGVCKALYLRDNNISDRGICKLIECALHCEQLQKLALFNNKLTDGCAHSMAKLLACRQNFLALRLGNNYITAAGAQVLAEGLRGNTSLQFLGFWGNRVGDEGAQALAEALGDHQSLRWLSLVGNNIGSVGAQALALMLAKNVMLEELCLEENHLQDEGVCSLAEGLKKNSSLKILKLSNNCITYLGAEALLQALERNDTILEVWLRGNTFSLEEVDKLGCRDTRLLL
Description: (§1) HEK293T cells were transfected with 0.3 μg of pMX-puro expressing normal Nod2 or mutants carrying P268S (SEQ ID NOs:56 (nucleic acid) and 57 (amino acid), P268S/R702W (SEQ ID NOs: 57 (nucleic acid) and 58 (amino acid)), P268S/G908 (SEQ ID NOs: 60 (nucleic acid) and 61 (amino acid)), P268S/L1007fsinsC (SEQ ID NOs: 54 (nucleic acid) and 55 (amino acid)) or empty plasmid (−). Eight hours post-transfection, 100 ng/ml MDP was added to the cultured cells and at 24 hours post-transfection NF-κB activity was determined as described in FIG. 1A. Values represent the normalized mean data ±S.D. of triplicate cultures. The results shown are representative of three separate experiments.

P268S/R702W NOD2 = target: T3, P268S/R702W NOD2 (Homo sapiens, UniProt Q9HC29, P268S/R702W); test: NF-κB reporter assay in HEK293T cells expressing P268S/R702W NOD2; type: cell-based; details: 100 ng/ml MDP
T3 construct: expressed in transfected cells; host or cells: HEK293T
T3 sequence (Q9HC29 whole entry P268S/R702W): as the sequence (Q9HC29 whole entry P268S) above, with R702W counted along it
Description: as §1

P268S/G908R NOD2 = target: T4, P268S/G908R NOD2 (Homo sapiens, UniProt Q9HC29, G908R/P268S); test: NF-κB reporter assay in HEK293T cells expressing P268S/G908R NOD2; type: cell-based; details: 100 ng/ml MDP
T4 construct: expressed in transfected cells; host or cells: HEK293T
T4 sequence (Q9HC29 whole entry P268S/G908R): as the sequence (Q9HC29 whole entry P268S) above, with G908R counted along it
Description: as §1

P268S/L1007fsinsC NOD2 = target: T5, P268S/L1007fsinsC NOD2 (Homo sapiens, UniProt Q9HC29, P268S); test: NF-κB reporter assay in HEK293T cells expressing P268S/L1007fsinsC NOD2; type: cell-based; details: 100 ng/ml MDP
T5 construct: expressed in transfected cells; host or cells: HEK293T
T5 sequence (Q9HC29 with tags, fused parts or gaps P268S): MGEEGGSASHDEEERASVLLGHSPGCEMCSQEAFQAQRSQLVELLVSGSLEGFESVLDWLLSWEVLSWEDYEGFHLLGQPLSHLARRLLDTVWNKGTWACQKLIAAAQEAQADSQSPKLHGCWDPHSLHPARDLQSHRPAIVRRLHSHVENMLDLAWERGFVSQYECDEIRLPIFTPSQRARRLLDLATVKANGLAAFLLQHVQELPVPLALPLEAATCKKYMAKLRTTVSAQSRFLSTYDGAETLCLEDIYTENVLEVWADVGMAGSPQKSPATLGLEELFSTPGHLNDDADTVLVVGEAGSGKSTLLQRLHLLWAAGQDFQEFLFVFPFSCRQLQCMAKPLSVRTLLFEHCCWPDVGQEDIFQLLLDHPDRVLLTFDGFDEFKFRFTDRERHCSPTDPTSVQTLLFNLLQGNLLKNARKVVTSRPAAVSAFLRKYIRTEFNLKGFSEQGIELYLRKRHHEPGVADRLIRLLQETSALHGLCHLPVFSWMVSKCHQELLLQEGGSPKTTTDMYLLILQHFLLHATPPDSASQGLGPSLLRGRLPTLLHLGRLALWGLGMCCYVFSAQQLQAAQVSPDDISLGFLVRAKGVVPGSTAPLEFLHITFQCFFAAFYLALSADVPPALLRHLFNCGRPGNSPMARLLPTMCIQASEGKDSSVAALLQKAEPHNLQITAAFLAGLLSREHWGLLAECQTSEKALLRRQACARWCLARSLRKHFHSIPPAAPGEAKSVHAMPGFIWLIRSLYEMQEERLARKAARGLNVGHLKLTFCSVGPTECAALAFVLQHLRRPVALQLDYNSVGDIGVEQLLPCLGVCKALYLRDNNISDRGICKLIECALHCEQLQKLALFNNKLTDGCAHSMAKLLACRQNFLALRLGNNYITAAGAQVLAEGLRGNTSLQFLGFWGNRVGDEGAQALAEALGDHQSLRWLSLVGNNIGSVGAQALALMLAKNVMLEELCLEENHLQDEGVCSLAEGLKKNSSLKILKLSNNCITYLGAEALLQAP
Description: as §1

NF-κB = NF-κB binding activity by EMSA in nuclear extracts of PBMNC; type: cell-based, human; details: 1 μg/ml LPS from Salmonella typhimurium, 10 ng/ml MDP, 1 hour; for response of PBMNC (NF-κB-DNA complex, EMSA): PBMNC from individuals homozygous for L1007fsinsC
Description: (§2) FIGS. 20C and D show PBMNC analyzed for expression of IL-1β (C) and A1 (D) transcripts by quantitative RT-PCR.
(§3) Genotyping was performed using a ddNTP primer extension system. Nuclear extracts from LPS-stimulated cells were pre-incubated with antibody specific for p50 subunit of NF-κB to monitor the size of the NF-κB-DNA complex. cDNA was amplified with specific primers for human IL-1β, glyceraldehyde-3-phosphate-dehydrogenase (GAPDH) as described (5) and A1 (5′-[…]-3′ (SEQ ID NO: 53) and 5′-[…]-3′ (SEQ ID NO:54)). The levels of IL-1β and A1 transcripts normalized to that of GAPDH were expressed relative to those in untreated cells that were considered as baseline. Specificity of the desired PCR products was determined by melting curve analysis. Histograms represent the mean ±S.D. of triplicate analyses.
The NOD2 variants associated with Crohn's disease, R702W, G908R and L1007fsinsC, occur on the same haplotype background, which includes the common P268S polymorphism (Hugot et al., Nature 411:599 [2001]; Ogura et al., Nature 411:603 [2001]). To compare the ability of normal and mutant NOD2 proteins to induce NF-κB activity in response to MDP, the NOD2 proteins were expressed in cells and evaluated in a functional assay. […] The role of NOD2 in the recognition of MDP by primary cells from normal and Crohn's disease patients was next determined. A panel of healthy and Crohn's disease individuals were genotyped for the disease-associated NOD2 alleles and two individuals (one without clinical evidence of disease and one individual with Crohn's disease) who were homozygous for the loss-of-function L1007fsinsC mutation were identified (FIG. 20A). The identification of apparently healthy individuals homozygous for L1007fsinsC is expected in that the penetrance of the L1007fsinsC mutation is not complete (Hugot et al., supra; Ogura et al., supra; Hampe et al., Lancet 357:1925 [2001]; Ahmad et al., Gastroenterology 122:854 [2002]). Peripheral blood mononuclear cells (PBMNC) that are known to express NOD2 were isolated, incubated with MDP or LPS and NF-κB activation was assessed in nuclear extracts by an electrophoretic mobility shift assay (EMSA).

IL-1β mRNA = test: Quantitative RT-PCR of IL-1β transcripts in PBMNC; type: cell-based, human; details: normal or heterozygous NOD2 alleles, LPS 1 μg/ml, MDP 10 ng/ml
Description: as §2, §3
(§4) To further assess NF-κB activation, the mRNA levels of EL-1β and A1, two NF-κB target genes expressed in PBMNC (Cogswell et al., J. Immunol. 153:712 [1994]; Zong et al., Genes Dev. 13:384 [1999]), were evaluated by quantitative real-time polymerase-chain reaction (RT-PCR) analysis. Both IL-1β and A1 mRNA levels were induced by incubation with LPS and MDP in cells from individuals carrying normal or heterozygous NOD2 alleles (FIG. 20C and 20D). […] Thus, PBMNC require the expression of normal NOD2 for their response to MDP but not to LPS.

A1 mRNA = test: Quantitative RT-PCR of A1 transcripts in PBMNC; type: cell-based, human; details: LPS 1 μg/ml, MDP 10 ng/ml
Description: as §2, §3, §4

T1 sequence (Q9HC29 whole entry R703H): as the sequence (Q9HC29 whole entry P268S) above, with S268P, R703H counted along it

CC(=O)N[C@@H]1[C@@H](O[C@H](C)C(=O)N[C@@H](C)C(=O)N[C@H](CCC(=O)O)C(N)=O)[C@H](O)[C@@H](CO)O[C@H]1O [MDP, MurNAc-L-Ala-D-isoGln]
NOD2-dependent stimulation of NF-κB by synthetic muropeptides (Nod2; HEK293T cells, 66 ng pMX-puro-NOD2 (FIG. 18B)): induced potent stimulation of NOD2; also recorded: induced Nod2-dependent activation of NF-κB
NF-κB activation in response to MDP, normal NOD2 (Nod2; HEK293T cells, 100 ng/ml MDP): induced similar levels of NF-κB activation
stimulation of NOD2 activity (Nod2; HEK293 cells, 0.3 ng pcDNA3-Nod2, MDP 100 ng/ml, sBLP 1000 ng/ml (FIG. 18D)): stimulated NOD2 activity
NF-κB activation in response to MDP, P268S NOD2 (P268S NOD2): induced similar levels of NF-κB activation
NF-κB activation in response to MDP, P268S/R702W variant compared to normal NOD2 (P268S/R702W NOD2): greatly reduced levels of NF-κB activation; also recorded: retained some ability to respond
NF-κB activation in response to MDP, P268S/G908R variant compared to normal NOD2 (P268S/G908R NOD2): greatly reduced levels of NF-κB activation
NF-κB activation in response to MDP, P268S/L1007fsinsC variant compared to normal NOD2 (P268S/L1007fsinsC NOD2): greatly reduced levels of NF-κB activation; also recorded: did not respond at all
induction of the NF-κB-DNA complex (EMSA) (NF-κB; PBMNC from individuals carrying normal or heterozygous NOD2 alleles): resulted in induction of the NF-κB-DNA complex
response of PBMNC (NF-κB-DNA complex, EMSA) (NF-κB): but not to MDP
response of PBMNC (NF-κB-DNA complex, EMSA) (NF-κB; listed as muramyl dipeptide): defective in their response
IL-1β mRNA levels (IL-1β mRNA): induced
A1 mRNA levels (A1 mRNA; homozygous for L1007fsinsC): but not MDP
A1 mRNA levels (A1 mRNA; normal or heterozygous NOD2 alleles): induced

Reference: patent publication US7375086B2, “Modulators of Nod2 signaling” (The Regents of the University of Michigan, priority 2000, dated 2008)
